Test results taken from publication PMC5608804, “Stepwise Evolution Improves Identification of Diverse Peptides Binding to a Protein Target” (Scientific Reports, 2017).

biological target: T1, streptavidin (Streptomyces avidinii, UniProt P22629); experiment: Cy5-streptavidin binding on HotSpot discovery array, 5-mer L-peptide library; details: 5-mer L-peptide library array, Cy5-streptavidin; from average of three arrays
T1 construct: purchased GE Healthcare (Little Chalfont, UK)
Source text: To identify hotspot sequences that bind to streptavidin (SA), we bound Cy5-SA to an array library of 2,476,099 5-mer L-peptides synthesized with 19 of 20 natural amino acids (excluding cysteine). The fluorescence signal intensity was aggregated across three independently synthesized arrays; then the 2,047 peptides with a signal-to-background ratio (S/B) >4 were selected. The data was further filtered to select 1,100 peptides for which signal intensities were highly correlated on all 3 arrays (the percentage of mean deviation to mean was <10%, see Supplementary dataset Table 2A). Most selected sequences (1,019 of 1,100) contained HP, PQ, or PM sequences: their presence would be expected in the well-known HPQ and HPM streptavidin binders[13]–[18].
The comprehensive peptide library included 2,476,099 5-mer peptides synthesized in a single copy with 19 of 20 L- or D-amino acids (excluding cysteine). Libraries were flanked on both N- and C-termini by linkers of 1 or 3 amino acids using a 3:1 glycine-serine mixture.
Cy5™-streptavidin (Cy5-SA) was purchased from GE Healthcare (Little Chalfont, UK). Freshly deprotected arrays were used in each experiment. Streptavidin binding to all arrays was performed with 0.5 µg/ml Cy5-SA either in binding buffer containing 10 mM Tris-HCl (pH 7.4), 1% alkali-soluble casein (EMD Millipore), 0.05% Tween-20 or in 10 mM Tris-HCl (pH 7.4), 4% BSA (Roche, Basel, Switzerland), 0.05% Tween-20 in a 30 mL PAP Jar container (Evergreen Scientific, Vernon, CA) overnight at 4° C. After incubation, arrays were washed in 20 mM Tris-HCl (pH 7.8), 0.2 M NaCl, 1% SDS or 1X TBS (pH 7.4) for 30 sec followed by a 1 min wash in water, and then dried by spinning in a microcentrifuge equipped with an array holder.
Cy5 fluorescence intensity of the arrays was measured with an MS200 scanner (Roche NimbleGen, Madison, WI) at resolution 2 µm, wavelength 635 nm, gain 25%, and laser intensity 100%. Cy5 signal intensities were extracted using Image Extraction Software (Roche NimbleGen). Data pre-processing, normalization, and statistical tests were performed using the language R. Data visualization and analysis was performed with the Spotfire 6.5.0 (Tibco, Boston, MA) software platform. Distance analysis and principle component analysis of distance matrices were performed with the R package PEPLIB[19].

T1 sequence (P22629 25-183): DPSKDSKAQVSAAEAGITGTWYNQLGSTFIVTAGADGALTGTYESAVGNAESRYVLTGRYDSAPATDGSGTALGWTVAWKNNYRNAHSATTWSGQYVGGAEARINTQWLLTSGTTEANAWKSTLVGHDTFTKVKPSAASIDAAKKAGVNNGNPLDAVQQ

| Substance | S/B (signal to background ratio) |
| --- | --- |
| PAWAH [L-amino acid 5-mer array peptide] | 50.0 |
| YGHPQ | 210.5 |
| ISHPQ | 142.0 |
| HPQHN | 28.0 |
| SEHPM | 19.1 |
| PPHPM | 53.6 |
| FLHPQ | 145.5 |
| PKHPM | 19.4 |
| RTHPQ | 125.7 |
| LGEYH [L-amino acid 5-mer array peptide] | 21.3 |
| DHPQH | 31.2 |
| KHPQV | 33.0 |
| WHPQF | 132.3 |
| WTHPQ | 181.7 |
| EDHPQ | 34.6 |
| LHHPQ | 188.8 |
| HPMSG | 45.4 |
| FHPQY | 56.4 |
| KFHPM | 29.8 |

| Substance | S/B (signal to background ratio) |
| --- | --- |
| HPQGY | 53.6 |
| KHHPM | 29.1 |
| EHPQR | 45.0 |
| YNHPQ | 193.0 |
| NAHPM | 36.0 |
| GAHPM | 34.1 |
| TMHPQ | 120.6 |
| IHPQN | 128.3 |
| FPHPQ | 173.5 |
| IQHPM | 50.9 |
| RHHPQ | 148.9 |
| IRHPQ | 165.9 |
| HPQFR | 23.8 |
| HHPQI | 19.7 |
| NHPQN | 138.1 |
| NGHPM | 54.5 |
| SQHPM | 50.2 |
| QHPQA | 138.2 |
| TFHPM | 52.6 |

| Substance | S/B (signal to background ratio) |
| --- | --- |
| NGHPQ | 144.3 |
| IHPQA | 150.7 |
| THPQG | 125.0 |
| IHPQQ | 32.5 |
| HGHPQ | 129.3 |
| TQHPQ | 120.0 |
| VFHPQ | 152.8 |
| HPQRG | 33.4 |
| HPQVF | 56.9 |
| HPQFL | 42.4 |
| RHPQD | 36.1 |
| VLHPM | 32.2 |
| TRHPM | 53.7 |
| HPQVE | 19.8 |
| QNHPQ | 135.0 |
| RLHPM | 33.8 |
| SNHPM | 54.1 |
| WHPMM | 43.4 |
| GMHPM | 38.8 |

same assay, conditions: 5-mer L-peptide library array, Cy5-streptavidin; from the average of three arrays

| Substance | S/B (signal to background ratio) |
| --- | --- |
| RGHPM | 58.1 |
| SKHPQ | 66.3 |
| IEHPQ | 67.6 |
| HPQFN | 113.3 |
| RRHPQ | 103.0 |
| YRHPM | 71.5 |
| GHPQV | 97.6 |
| VIHPQ | 83.6 |
| HDHPQ | 112.6 |
| MHPMA | 62.7 |
| KQHPQ | 94.4 |
| HPQNQ | 86.9 |
| QNHPM | 58.4 |
| YEHPQ | 103.2 |
| YHPQH | 62.5 |
| YHPMA | 80.6 |
| YDHPM | 61.8 |
| TLHPQ | 111.0 |
| QHPQF | 117.5 |
| AHPQS | 79.9 |

| Substance | S/B (signal to background ratio) |
| --- | --- |
| LTHPM | 64.2 |
| VHPQS | 73.9 |
| HMHPM | 61.8 |
| VVHPQ | 79.7 |
| NHPQS | 70.7 |
| DRHPQ | 87.4 |
| SVHPQ | 116.5 |
| FSHPM | 91.4 |
| QLHPQ | 117.5 |
| LLHPQ | 105.6 |
| FHPMG | 59.2 |
| ENHPQ | 78.3 |
| HHPMA | 76.0 |
| QPHPQ | 90.3 |
| LAAYH [L-amino acid 5-mer array peptide] | 67.7 |
| HPQNN | 112.8 |
| DAHPQ | 62.6 |
| GEHPQ | 63.7 |
| HFHPM | 76.4 |
| NKHPQ | 85.9 |

same assay, conditions: 5-mer L-peptide library, from the average of three arrays

| Substance | S/B (signal to background ratio) |
| --- | --- |
| HPMFI | 4.7 |
| HPWRT | 4.4 |
| FHPQE | 5.1 |
| HPMQS | 4.9 |
| GHPQP | 4.5 |
| HPQQK | 4.4 |
| HPMHW | 4.9 |
| WHKPQ | 4.7 |
| HPQIP | 4.0 |
| WHGPQ | 4.5 |
| EHPMY | 4.5 |

same assay, conditions: average of three arrays, L-peptide 5-mer library

| Substance | S/B (signal to background ratio) |
| --- | --- |
| PAWAH [L-amino acid 5-mer array peptide] | 50.0 |
| DWDKV [L-amino acid 5-mer array peptide] | 5.7 |
| LGKYH [L-amino acid 5-mer array peptide] | 6.7 |
| MAMHF [L-amino acid 5-mer array peptide] | 17.9 |
| NWDQW [L-amino acid 5-mer array peptide] | 6.7 |
| NWDEW [L-amino acid 5-mer array peptide] | 7.8 |
| LGEYH [L-amino acid 5-mer array peptide] | 21.3 |
| TPSFG [L-amino acid 5-mer array peptide] | 6.3 |
| LGRYH [L-amino acid 5-mer array peptide] | 9.7 |
| MANHF [L-amino acid 5-mer array peptide] | 6.0 |
| LGRFH [L-amino acid 5-mer array peptide] | 8.7 |
| RHDLY [L-amino acid 5-mer array peptide] | 6.6 |
| LAAYH [L-amino acid 5-mer array peptide] | 67.7 |

same assay, conditions: signal to background ratio; 5-mer L-peptide library array, Cy5-streptavidin

| Substance | S/B |
| --- | --- |
| DWDKV [L-amino acid 5-mer array peptide] | 5.7 |
| LGKYH [L-amino acid 5-mer array peptide] | 6.7 |
| HPQQH | 12.2 |
| HPMYQ | 5.7 |
| MAMHF [L-amino acid 5-mer array peptide] | 17.9 |
| HPMQN | 8.8 |
| NWDQW [L-amino acid 5-mer array peptide] | 6.7 |
| WHPMT | 16.9 |
| DHPMN | 12.4 |
| NWDEW [L-amino acid 5-mer array peptide] | 7.8 |
| HPMVF | 5.3 |
| PHPQD | 15.6 |
| FHPQK | 14.2 |
| LHPMM | 5.2 |
| NHPQW | 16.4 |
| HPQPF | 5.7 |

| Substance | S/B |
| --- | --- |
| MHPQK | 9.8 |
| HPMMW | 5.7 |
| LHPQT | 15.6 |
| HPTPW | 15.1 |
| HPQKG | 18.2 |
| IHPQK | 11.6 |
| TPSFG [L-amino acid 5-mer array peptide] | 6.3 |
| RHPMQ | 16.4 |
| RHPMY | 14.4 |
| PQPDW | 5.2 |
| LGRYH [L-amino acid 5-mer array peptide] | 9.7 |
| MANHF [L-amino acid 5-mer array peptide] | 6.0 |
| VVHPM | 15.5 |
| LGRFH [L-amino acid 5-mer array peptide] | 8.7 |
| YRGHP | 5.3 |
| RHDLY [L-amino acid 5-mer array peptide] | 6.6 |
